# Experimental data: US9540377B2, “2,6,7,8 substituted purines as HDM2 inhibitors” (Merck Sharp & Dohme Corp., priority 2013, dated 2017)
# Target: HDM2 (truncated, residues 17 to 125, containing p53 binding surface) (Homo sapiens (Human), UniProt Q00987)
# Assay: HDM2 FRET assay (inhibition of binding of FITC labeled p53-site peptide to HDM2)
# Details: Table 23
# Source text: IC50 DETERMINATIONS: Dose-response curves were plotted from the inhibition data, from 10 point serial dilutions of inhibitory compounds. Concentration of compound was plotted against em520/Cem495 ratio signal. To generate IC50 values, the dose-response curves were fitted to a standard sigmoidal curve and IC50 values were derived by nonlinear regression analysis.
# Chain of HDM2 (truncated, residues 17 to 125, containing p53 binding surface) (Q00987 17-125): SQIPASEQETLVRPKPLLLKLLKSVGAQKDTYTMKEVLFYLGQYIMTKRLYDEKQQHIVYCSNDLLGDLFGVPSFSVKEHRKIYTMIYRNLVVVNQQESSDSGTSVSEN
row,Structure (SMILES),IC50 [nM]
1,"CC(F)(c1ccccn1)c1nc2nc(-c3n[nH]c(=O)o3)nc(-c3cccc(Cl)c3)c2n1C[C@H]1CC[C@H](C)CC1 (single isomer, unassigned) [Example 23.37, 5-{6-(3-chlorophenyl)-8-[1-fluoro-1-(pyridin-2-yl)ethyl]-7-[{trans-4-methylcyclohexyl)methyl]-7H-purin-2-yl}-1,3,4-oxadiazol-2(3H)-one]",9.65
2,"COC(C)(c1ccccc1F)c1nc2nc(-c3noc(=O)[nH]3)nc(-c3cncc(Cl)c3)c2n1C[C@H]1CC[C@H](C)CC1 (single isomer, unassigned) [Example 23.50, 3-{6-(5-chloropyridin-3-yl)-8-[1-(2-fluorophenyl)-1-methoxyethyl]-7-[(trans-4-methylcyclohexyl)methyl]-7H-purin-2-yl}-1,2,4-oxadiazol-5(4H)-one]",6.55
3,"COC(C)(c1ccccn1)c1nc2nc(-c3n[nH]c(=O)o3)nc(-c3cccc(Cl)c3)c2n1C[C@H]1CC[C@H](C)CC1 (single isomer, unassigned) [Example 23.54, 5-{6-(3-chlorophenyl)-8-(1-methoxy-1-pyridin-2-ylethyl)-7-[(trans-4-methylcyclohexyl)methyl]-7H-purin-2-yl}-1,3,4-oxadiazol-2(3H)-one]",13.6
4,"COC(C)(c1ccccn1)c1nc2nc(-c3n[nH]c(=O)o3)nc(-c3cccc(Cl)c3)c2n1C[C@H]1CC[C@H](C)CC1 (single isomer, unassigned) [Example 23.55, 5-{6-(3-chlorophenyl)-8-(1-methoxy-1-pyridin-2-ylethyl)-7-[(trans-4-methylcyclohexyl)methyl]-7H-purin-2-yl}-1,3,4-oxadiazol-2(3H)-one]",4.26
5,"CC(F)(c1c(F)cccc1F)c1nc2nc(-c3noc(=O)[nH]3)nc(-c3cncc(Cl)c3)c2n1C[C@H]1CC[C@H](C)CC1 (single isomer, unassigned) [Example 23.68, 3-{6-(5-chloropyridin-3-yl)-8-[1-(2,6-difluorophenyl)-1-fluoroethyl]-7-[(trans-4-methylcyclohexyl)methyl]-7H-purin-2-yl}-1,2,4-oxadiazol-5(4H)-one]",4.26
6,"CC(F)(c1c(F)cccc1F)c1nc2nc(-c3noc(=O)[nH]3)nc(-c3cncc(Cl)c3)c2n1C[C@H]1CC[C@H](C)CC1 (single isomer, unassigned) [Example 23.69, 3-{6-(5-chloropyridin-3-yl)-8-[1-(2,6-difluorophenyl)-1-fluoroethyl]-7-[(trans-4-methylcyclohexyl)methyl]-7H-purin-2-yl}-1,2,4-oxadiazol-5(4H)-one]",0.156
7,"COC(C)(c1cccc(Cl)c1F)c1nc2nc(-c3n[nH]c(=O)o3)nc(-c3cncc(Cl)c3)c2n1C[C@H]1CC[C@H](C)CC1 (single isomer, unassigned) [Example 23.73, 5-{8-[1-(3-chloro-2-fluorophenyl)-1-methoxyethyl]-6-(5-chloropyridin-3-yl)-7-[(trans-4-methylcyclohexyl)methyl]-7H-purin-2-yl}-1,3,4-oxadiazol-2(3H)-one]",0.623
8,"COC(C)(c1cccc(Cl)c1F)c1nc2nc(-c3n[nH]c(=O)o3)nc(-c3cncc(Cl)c3)c2n1C[C@H]1CC[C@H](C)CC1 (single isomer, unassigned) [Example 23.74, 5-{8-[1-(3-chloro-2-fluorophenyl)-1-methoxyethyl]-6-(5-chloropyridin-3-yl)-7-[(trans-4-methylcyclohexyl)methyl]-7H-purin-2-yl}-1,3,4-oxadiazol-2(3H)-one]",17.8
9,"CC(F)(c1c(F)cccc1F)c1nc2nc(-c3n[nH]c(=O)o3)nc(-c3cncc(Cl)c3)c2n1C[C@H]1CC[C@H](C)CC1 (single isomer, unassigned) [Example 23.80, 5-{6-(5-chloropyridin-3-yl)-8-[1-(2,6-difluorophenyl)-1-fluoroethyl]-7-[(trans-4-methylcyclohexyl)methyl]-7H-purin-2-yl}-1,3,4-oxadiazol-2(3H)-one]",10.7
10,"CC(F)(c1c(F)cccc1F)c1nc2nc(-c3n[nH]c(=O)o3)nc(-c3cncc(Cl)c3)c2n1C[C@H]1CC[C@H](C)CC1 (single isomer, unassigned) [Example 23.81, 5-{6-(5-chloropyridin-3-yl)-8-[1-(2,6-difluorophenyl)-1-fluoroethyl]-7-[(trans-4-methylcyclohexyl)methyl]-7H-purin-2-yl}-1,3,4-oxadiazol-2(3H)-one]",0.289
11,"CC1CCCCC1(F)c1nc2nc(-c3n[nH]c(=O)o3)nc(-c3cncc(Cl)c3)c2n1C[C@H]1CC[C@H](C)CC1 (single isomer, unassigned) [Example 23.82, 5-{6-(5-chloropyridin-3-yl)-8-(1-fluoro-2-methylcyclohexyl)-7-[(trans-4-methylcyclohexyl)methyl]-7H-purin-2-yl}-1,3,4-oxadiazol-2(3H)-one]",7.63
12,"CC1CCCCC1(F)c1nc2nc(-c3n[nH]c(=O)o3)nc(-c3cncc(Cl)c3)c2n1C[C@H]1CC[C@H](C)CC1 (single isomer, unassigned) [Example 23.83, 5-{6-(5-chloropyridin-3-yl)-8-(1-fluoro-2-methylcyclohexyl)-7-[(trans-4-methylcyclohexyl)methyl]-7H-purin-2-yl}-1,3,4-oxadiazol-2(3H)-one]",6.31
13,"CC(F)(c1ncccc1F)c1nc2nc(-c3n[nH]c(=O)o3)nc(-c3cncc(Cl)c3)c2n1C[C@H]1CC[C@H](C)CC1 (single isomer, unassigned) [Example 23.84, 5-{6-(5-chloropyridin-3-yl)-8-[1-fluoro-1-(3-fluoropyridin-2-yl)ethyl]-7-[(trans-4-methylcyclohexyl)methyl]-7H-purin-2-yl}-1,3,4-oxadiazol-2(3H)-one]",16.5
14,"CC(F)(c1ncccc1F)c1nc2nc(-c3n[nH]c(=O)o3)nc(-c3cncc(Cl)c3)c2n1C[C@H]1CC[C@H](C)CC1 (single isomer, unassigned) [Example 23.85, 5-{6-(5-chloropyridin-3-yl)-8-[1-fluoro-1-(3-fluoropyridin-2-yl)ethyl]-7-[(trans-4-methylcyclohexyl)methyl]-7H-purin-2-yl}-1,3,4-oxadiazol-2(3H)-one]",0.359
15,"COC(C)(c1ncccc1F)c1nc2nc(-c3n[nH]c(=O)o3)nc(-c3cncc(Cl)c3)c2n1C[C@H]1CC[C@H](C)CC1 (single isomer, unassigned) [Example 23.86, 5-{6-(5-chloropyridin-3-yl)-8-[1-(3-fluoropyridin-2-yl)-1-methoxyethyl]-7-[(trans-4-methylcyclohexyl)methyl]-7H-purin-2-yl}-1,3,4-oxadiazol-2(3H)-one]",0.675
16,"COC(C)(c1ncccc1F)c1nc2nc(-c3n[nH]c(=O)o3)nc(-c3cncc(Cl)c3)c2n1C[C@H]1CC[C@H](C)CC1 (single isomer, unassigned) [Example 23.87, 5-{6-(5-chloropyridin-3-yl)-8-[1-(3-fluoropyridin-2-yl)-1-methoxyethyl]-7-[(trans-4-methylcyclohexyl)methyl]-7H-purin-2-yl}-1,3,4-oxadiazol-2(3H)-one]",19.6
17,"COC(C)(c1c(F)cccc1F)c1nc2nc(-c3n[nH]c(=O)o3)nc(-c3cncc(Cl)c3)c2n1C[C@H]1CC[C@H](C)CC1 (single isomer, unassigned) [Example 23.88, 5-{6-(5-chloropyridin-3-yl)-8-[1-(2,6-difluorophenyl)-1-methoxyethyl]-7-[(trans-4-methylcyclohexyl)methyl]-7H-purin-2-yl}-1,3,4-oxadiazol-2(3H)-one]",0.598
18,"COC(C)(c1c(F)cccc1F)c1nc2nc(-c3n[nH]c(=O)o3)nc(-c3cncc(Cl)c3)c2n1C[C@H]1CC[C@H](C)CC1 (single isomer, unassigned) [Example 23.89, 5-{6-(5-chloropyridin-3-yl)-8-[1-(2,6-difluorophenyl)-1-methoxyethyl]-7-[(trans-4-methylcyclohexyl)methyl]-7H-purin-2-yl}-1,3,4-oxadiazol-2(3H)-one]",5.12
19,"COC(C)(c1c(F)cccc1F)c1nc2nc(-c3noc(=O)[nH]3)nc(-c3cncc(Cl)c3)c2n1C[C@H]1CC[C@H](C)CC1 (single isomer, unassigned) [Example 23.93, 3-{6-(5-chloropyridin-3-yl)-8-[1-(2,6-difluorophenyl)-1-methoxyethyl]-7-[(trans-4-methylcyclohexyl)methyl]-7H-purin-2-yl}-1,2,4-oxadiazol-5(4H)-one]",0.452
20,"CC1COCCC1(F)c1nc2nc(-c3noc(=O)[nH]3)nc(-c3cncc(Cl)c3)c2n1C[C@H]1CC[C@H](C)CC1 (single isomer, unassigned) [Example 23.94, 3-{6-(5-chloropyridin-3-yl)-8-(4-fluoro-3-methyltetrahydro-2H-pyran-4-yl)-7-[(trans-4-methylcyclohexyl)methyl]-7H-purin-2-yl}-1,2,4-oxadiazol-5(4H)-one]",23.4
21,"CC1COCCC1(F)c1nc2nc(-c3noc(=O)[nH]3)nc(-c3cncc(Cl)c3)c2n1C[C@H]1CC[C@H](C)CC1 (single isomer, unassigned) [Example 23.95, 3-{6-(5-chloropyridin-3-yl)-8-(4-fluoro-3-methyltetrahydro-2H-pyran-4-yl)-7-[(trans-4-methylcyclohexyl)methyl]-7H-purin-2-yl}-1,2,4-oxadiazol-5(4H)-one]",4.33
22,"CC(F)(c1ncccc1F)c1nc2nc(-c3noc(=O)[nH]3)nc(-c3cncc(Cl)c3)c2n1C[C@H]1CC[C@H](C)CC1 (single isomer, unassigned) [Example 23.98, 3-{6-(5-chloropyridin-3-yl)-8-[1-fluoro-1-(3-fluoropyridin-2-yl)ethyl]-7-[(trans-4-methylcyclohexyl)methyl]-7H-purin-2-yl}-1,2,4-oxadiazol-5(4H)-one]",9.74
23,"CC(F)(c1ncccc1F)c1nc2nc(-c3noc(=O)[nH]3)nc(-c3cncc(Cl)c3)c2n1C[C@H]1CC[C@H](C)CC1 (single isomer, unassigned) [Example 23.99, 3-{6-(5-chloropyridin-3-yl)-8-[1-fluoro-1-(3-fluoropyridin-2-yl)ethyl]-7-[(trans-4-methylcyclohexyl)methyl]-7H-purin-2-yl}-1,2,4-oxadiazol-5(4H)-one]",0.315
